Consider 14 molecules from patent US20240100170A1, “CYCLIC-AMP RESPONSE ELEMENT BINDING PROTEIN (CBP) AND/OR ADENOVIRAL E1A BINDING PROTEIN OF 300 KDA (P300) DEGRADATION COMPOUNDS AND METHODS OF USE” (CULLGEN (SHANGHAI), INC., priority 2020, published 2024).

The test system of assay [1] is LNCaP prostate cancer cell. The assay is described as follows: LNCaP cell viability (CellTiter-Glo). The assay is classed as cell-based. Particulars: Homo sapiens, 72 h, LNCaP cell viability, 3 days, CellTiter-Glo. Summed up:
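CellTiter-Glo luminescence measured three days after dosing with a 12-point 3-fold compound dilution series. LNCaP cells seeded at 5000/well in RPMI 1640 with 10% FBS; data normalized to untreated controls and IC50 fitted by nonlinear least-squares regression.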

Assay [2] addresses P300 (Homo sapiens, UniProt Q09472). Put plainly: percentage of inhibition (degradation) of p300 at 10 nM, Tables 2-4. Set-up: LNCaP or 22RV1 cells that express CBP/P300 proteins were treated with GNE-781 or the bivalent compounds; endogenous in cells; host or cells: LNCaP or 22RV1 (not given). Conditions: for inhibition at 0.01 µM: read-out: Degradation (10 nM). Format: cell-based. In a few lines:
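Degradation was measured at 10 nM. Cells or tissue were lysed in RIPA with protease and phosphatase inhibitors for 30 min at 4 °C and cleared, and protein was quantified by BCA. Lysates were resolved by SDS-PAGE, detected by chemiluminescent immunoblot, and bands were quantified by densitometry.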

Usually IC50 stands for the concentration that gives 50% inhibition. Lower therefore signals greater potency.

Read-outs that look alike come from different tables or passages of the source.

Sequence of P300 (Q09472 whole entry): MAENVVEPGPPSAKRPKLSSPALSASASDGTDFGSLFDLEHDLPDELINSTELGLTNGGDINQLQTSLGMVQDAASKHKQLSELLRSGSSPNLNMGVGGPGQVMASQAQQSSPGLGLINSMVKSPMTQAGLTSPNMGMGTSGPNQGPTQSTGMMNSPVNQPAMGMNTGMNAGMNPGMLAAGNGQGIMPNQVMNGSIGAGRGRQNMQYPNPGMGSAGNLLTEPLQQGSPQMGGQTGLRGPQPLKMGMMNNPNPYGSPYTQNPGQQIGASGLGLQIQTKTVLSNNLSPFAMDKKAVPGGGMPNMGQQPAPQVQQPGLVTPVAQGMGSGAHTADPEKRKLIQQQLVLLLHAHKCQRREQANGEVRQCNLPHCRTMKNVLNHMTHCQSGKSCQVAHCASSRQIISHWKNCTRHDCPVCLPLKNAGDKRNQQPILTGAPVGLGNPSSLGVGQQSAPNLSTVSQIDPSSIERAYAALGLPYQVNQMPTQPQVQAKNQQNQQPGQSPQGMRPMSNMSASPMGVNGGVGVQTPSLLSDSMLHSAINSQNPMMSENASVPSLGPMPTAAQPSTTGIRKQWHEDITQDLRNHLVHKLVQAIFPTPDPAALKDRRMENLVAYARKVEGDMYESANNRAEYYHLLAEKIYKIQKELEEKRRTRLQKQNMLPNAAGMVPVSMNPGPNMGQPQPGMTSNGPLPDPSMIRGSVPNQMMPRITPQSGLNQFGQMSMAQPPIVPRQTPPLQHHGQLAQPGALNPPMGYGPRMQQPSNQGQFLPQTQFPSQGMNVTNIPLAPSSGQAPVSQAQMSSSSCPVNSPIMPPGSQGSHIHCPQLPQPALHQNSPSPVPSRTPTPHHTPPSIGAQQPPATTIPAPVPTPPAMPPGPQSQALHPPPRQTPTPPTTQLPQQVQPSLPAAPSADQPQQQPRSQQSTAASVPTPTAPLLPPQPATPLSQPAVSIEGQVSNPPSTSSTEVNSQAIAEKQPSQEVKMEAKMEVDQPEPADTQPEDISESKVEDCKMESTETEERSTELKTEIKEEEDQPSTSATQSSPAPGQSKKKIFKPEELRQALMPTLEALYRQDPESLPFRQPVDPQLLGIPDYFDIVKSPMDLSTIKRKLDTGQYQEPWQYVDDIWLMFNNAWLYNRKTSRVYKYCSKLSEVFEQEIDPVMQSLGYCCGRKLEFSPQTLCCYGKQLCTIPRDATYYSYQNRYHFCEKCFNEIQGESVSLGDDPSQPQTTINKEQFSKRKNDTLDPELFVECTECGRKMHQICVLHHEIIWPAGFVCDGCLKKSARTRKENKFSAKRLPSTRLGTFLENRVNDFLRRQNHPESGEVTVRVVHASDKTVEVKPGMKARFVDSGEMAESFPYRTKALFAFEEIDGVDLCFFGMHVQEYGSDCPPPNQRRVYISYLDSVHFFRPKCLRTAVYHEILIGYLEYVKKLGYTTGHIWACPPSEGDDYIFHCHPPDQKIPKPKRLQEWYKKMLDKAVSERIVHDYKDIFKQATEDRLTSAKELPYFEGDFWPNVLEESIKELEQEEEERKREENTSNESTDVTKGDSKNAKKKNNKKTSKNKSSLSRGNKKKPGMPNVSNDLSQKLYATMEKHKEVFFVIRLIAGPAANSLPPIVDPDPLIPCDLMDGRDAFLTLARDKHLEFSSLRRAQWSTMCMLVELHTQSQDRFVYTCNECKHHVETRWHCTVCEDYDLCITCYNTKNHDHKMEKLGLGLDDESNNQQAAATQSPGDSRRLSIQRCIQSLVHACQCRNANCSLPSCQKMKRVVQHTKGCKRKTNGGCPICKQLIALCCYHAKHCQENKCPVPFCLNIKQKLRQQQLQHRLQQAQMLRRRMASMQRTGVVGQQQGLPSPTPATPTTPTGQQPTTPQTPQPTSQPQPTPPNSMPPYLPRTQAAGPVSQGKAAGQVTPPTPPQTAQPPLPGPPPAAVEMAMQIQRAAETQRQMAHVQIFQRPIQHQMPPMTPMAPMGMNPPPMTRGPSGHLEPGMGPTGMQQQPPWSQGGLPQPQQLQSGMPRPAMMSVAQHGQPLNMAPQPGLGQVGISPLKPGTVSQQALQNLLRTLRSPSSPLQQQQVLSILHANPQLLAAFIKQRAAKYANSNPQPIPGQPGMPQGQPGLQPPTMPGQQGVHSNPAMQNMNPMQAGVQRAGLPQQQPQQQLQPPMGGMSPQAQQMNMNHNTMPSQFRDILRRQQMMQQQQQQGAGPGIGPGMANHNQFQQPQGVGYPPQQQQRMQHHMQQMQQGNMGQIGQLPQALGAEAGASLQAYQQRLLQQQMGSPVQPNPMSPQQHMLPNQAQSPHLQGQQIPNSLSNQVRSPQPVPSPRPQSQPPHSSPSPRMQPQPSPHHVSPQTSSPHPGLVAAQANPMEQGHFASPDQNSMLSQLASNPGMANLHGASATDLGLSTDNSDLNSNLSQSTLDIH

Consider `CC(=O)N1CCc2c(c(N3CCCc4cc(-c5cnn(C)c5)c(C(F)F)cc43)nn2C2CCN(CCCCC3CN(c4cccc5c4C(=O)N(C4CCC(=O)NC4=O)C5=O)C3)CC2)C1` (stereo not shown) [P-201, 4-(3-(4-(4-(5-acetyl-3-(7-(difluoromethyl)-6-(1-methyl-1H-pyrazol-4-yl)-3,4-dihydroquinolin-1(2H)-yl)-4,5,6,7-tetrahydro-1H-pyrazolo[4,3-c]pyridin-1-yl)piperidin-1-yl)butyl)azetidin-1-yl)-2-(2,6-dioxopiperidin-3-yl)isoindoline-1,3-dione], for which the IC50 in assay [1] (Table 4) turned out to be 10.4 nM. Moreover, the inhibition at 0.01 µM in assay [2] (p300, 10 nM, Table 4) was over 80%.
In the same order, the values of `CC(=O)N1CCc2c(c(N3CCCc4cc(-c5cnn(C)c5)c(C(F)F)cc43)nn2C2CCN(CCCN3CCC(CCc4cccc5c4C(=O)N(C4CCC(=O)NC4=O)C5=O)CC3)CC2)C1` (stereo not shown) [P-190, 4-(2-(1-(3-(4-(5-acetyl-3-(7-(difluoromethyl)-6-(1-methyl-1H-pyrazol-4-yl)-3,4-dihydroquinolin-1(2H)-yl)-4,5,6,7-tetrahydro-1H-pyrazolo[4,3-c]pyridin-1-yl)piperidin-1-yl)propyl)piperidin-4-yl)ethyl)-2-(2,6-dioxopiperidin-3-yl)isoindoline-1,3-dione] are 41.4 nM and 50 to 80%.
Taken in the same sequence, the figures for `CC(=O)N1CCc2c(c(N3CCCc4cc(-c5cnn(C)c5)c(C(F)F)cc43)nn2C2CCN(CCN3CCN(c4cccc5c4C(=O)N(C4CCC(=O)NC4=O)C5=O)CC3)CC2)C1` (stereo not shown) [P-191, 4-(4-(2-(4-(5-acetyl-3-(7-(difluoromethyl)-6-(1-methyl-1H-pyrazol-4-yl)-3,4-dihydroquinolin-1(2H)-yl)-4,5,6,7-tetrahydro-1H-pyrazolo[4,3-c]pyridin-1-yl)piperidin-1-yl)ethyl)piperazin-1-yl)-2-(2,6-dioxopiperidin-3-yl)isoindoline-1,3-dione] were 179 nM and under 20%.
As to `CC(=O)N1CCc2c(c(N3CCCc4cc(-c5cnn(C)c5)c(C(F)F)cc43)nn2C2CCN(CCCN3CCC(C#Cc4cccc5c4n(C)c(=O)n5C4CCC(=O)NC4=O)CC3)CC2)C1` (stereo not shown) [P-250, 3-(4-((1-(3-(4-(5-acetyl-3-(7-(difluoromethyl)-6-(1-methyl-1H-pyrazol-4-yl)-3,4-dihydroquinolin-1(2H)-yl)-4,5,6,7-tetrahydro-1H-pyrazolo[4,3-c]pyridin-1-yl)piperidin-1-yl)propyl)piperidin-4-yl)ethynyl)-3-methyl-2-oxo-2,3-dihydro-1H-benzo[d]imidazol-1-yl)piperidine-2,6-dione], the IC50 in assay [1] (Table 4) turned out to be 0.3 nM. The inhibition at 0.01 µM in assay [2] (p300, 10 nM, Table 4) was over 80%.
As to `CC(=O)N1CCc2c(c(N3CCCc4cc(-c5cnn(C)c5)c(C(F)F)cc43)nn2C2CCN(CCCN3CCC(C#Cc4ccc5c(c4)n(C)c(=O)n5C4CCC(=O)NC4=O)CC3)CC2)C1` (stereo not shown) [P-243, 3-(5-((1-(3-(4-(5-acetyl-3-(7-(difluoromethyl)-6-(1-methyl-1H-pyrazol-4-yl)-3,4-dihydroquinolin-1(2H)-yl)-4,5,6,7-tetrahydro-1H-pyrazolo[4,3-c]pyridin-1-yl)piperidin-1-yl)propyl)piperidin-4-yl)ethynyl)-3-methyl-2-oxo-2,3-dihydro-1H-benzo[d]imidazol-1-yl)piperidine-2,6-dione], in assay [1] (Table 4), the 50% inhibitory concentration (IC50) was 0.2 nM. Moreover, the inhibition at 0.01 µM in assay [2] (p300, 10 nM, Table 4) is over 80%.
For the molecule `CC(=O)N1CCc2c(c(N3CCCc4cc(-c5cnn(C)c5)c(C(F)F)cc43)nn2C2CCN(C(=O)CCCCNc3ccc(C(=O)NC4CCC(=O)NC4=O)c4ncccc34)CC2)C1` (stereo not shown) [P-241, 5-((5-(4-(5-acetyl-3-(7-(difluoromethyl)-6-(1-methyl-1H-pyrazol-4-yl)-3,4-dihydroquinolin-1(2H)-yl)-4,5,6,7-tetrahydro-1H-pyrazolo[4,3-c]pyridin-1-yl)piperidin-1-yl)-5-oxopentyl)amino)-N-(2,6-dioxopiperidin-3-yl)quinoline-8-carboxamide], in assay [1] (Table 4), the IC50 turned out to be 1.4 nM. For the same molecule, the inhibition at 0.01 µM in assay [2] (p300, 10 nM, Table 4) is over 80%.
Consider `CC(=O)N1CCc2c(c(N3CCCc4cc(-c5cnn(C)c5)c(C(F)F)cc43)nn2C2CCN(C(=O)CCN3CCN(CCCc4ccc5c(c4)n(C)c(=O)n5C4CCC(=O)NC4=O)CC3)CC2)C1` (stereo not shown) [P-234, 3-(5-(3-(4-(3-(4-(5-acetyl-3-(7-(difluoromethyl)-6-(1-methyl-1H-pyrazol-4-yl)-3,4-dihydroquinolin-1(2H)-yl)-4,5,6,7-tetrahydro-1H-pyrazolo[4,3-c]pyridin-1-yl)piperidin-1-yl)-3-oxopropyl)piperazin-1-yl)propyl)-3-methyl-2-oxo-2,3-dihydro-1H-benzo[d]imidazol-1-yl)piperidine-2,6-dione], for which, in assay [1] (Table 4), the IC50 is 6.8 nM. Further, the inhibition at 0.01 µM in assay [2] (p300, 10 nM, Table 4) is over 80%.
Molecule `CC(=O)N1CCc2c(c(N3CCCc4cc(-c5cnn(C)c5)c(C(F)F)cc43)nn2C2CCN(C(=O)CN3CCC(C#Cc4cccc5c4n(C)c(=O)n5C4CCC(=O)NC4=O)CC3)CC2)C1` (stereo not shown) [P-227, 3-(4-((1-(2-(4-(5-acetyl-3-(7-(difluoromethyl)-6-(1-methyl-1H-pyrazol-4-yl)-3,4-dihydroquinolin-1(2H)-yl)-4,5,6,7-tetrahydro-1H-pyrazolo[4,3-c]pyridin-1-yl)piperidin-1-yl)-2-oxoethyl)piperidin-4-yl)ethynyl)-3-methyl-2-oxo-2,3-dihydro-1H-benzo[d]imidazol-1-yl)piperidine-2,6-dione] returned an IC50 in assay [1] (Table 4) of 1.8 nM. Also, the inhibition at 0.01 µM in assay [2] (p300, 10 nM, Table 4) is over 80%.
The molecule `CC(=O)N1CCc2c(c(N3CCCc4cc(-c5cnn(C)c5)c(C(F)F)cc43)nn2C2CCN(CCN3CCOC(CNc4cccc5c4C(=O)N(C4CCC(=O)NC4=O)C5)C3)CC2)C1` (stereo not shown) [P-198, 3-(7-(((4-(2-(4-(5-acetyl-3-(7-(difluoromethyl)-6-(1-methyl-1H-pyrazol-4-yl)-3,4-dihydroquinolin-1(2H)-yl)-4,5,6,7-tetrahydro-1H-pyrazolo[4,3-c]pyridin-1-yl)piperidin-1-yl)ethyl)morpholin-2-yl)methyl)amino)-1-oxoisoindolin-2-yl)piperidine-2,6-dione] showed a half-maximal inhibitory concentration (IC50) in assay [1] (Table 4) of 2.4 nM. The inhibition at 0.01 µM in assay [2] is over 80%.
The molecule `CC(=O)N1CCc2c(c(N3CCCc4cc(-c5cnn(C)c5)c(C(F)F)cc43)nn2C2CCN(CCN3CCC(COc4cccc5c4C(=O)N(C4CCC(=O)NC4=O)C5=O)CC3)CC2)C1` (stereo not shown) [P-167, 4-((1-(2-(4-(5-acetyl-3-(7-(difluoromethyl)-6-(1-methyl-1H-pyrazol-4-yl)-3,4-dihydroquinolin-1(2H)-yl)-4,5,6,7-tetrahydro-1H-pyrazolo[4,3-c]pyridin-1-yl)piperidin-1-yl)ethyl)piperidin-4-yl)methoxy)-2-(2,6-dioxopiperidin-3-yl)isoindoline-1,3-dione] showed an IC50 in assay [1] (Table 3) of 92 nM. For the same molecule, the “Degradation (10 nM)” value in assay [2] (p300, 10 nM, Table 3) was “D (D: Degradation < 20%)”.
In turn, `CC(=O)N1CCc2c(c(N3CCCc4cc(-c5cnn(C)c5)c(C(F)F)cc43)nn2C2CCN(CCC3CCN(c4cccc5c4C(=O)N(C4CCC(=O)NC4=O)C5=O)CC3)CC2)C1` (stereo not shown) [P-192, 4-(4-(2-(4-(5-acetyl-3-(7-(difluoromethyl)-6-(1-methyl-1H-pyrazol-4-yl)-3,4-dihydroquinolin-1(2H)-yl)-4,5,6,7-tetrahydro-1H-pyrazolo[4,3-c]pyridin-1-yl)piperidin-1-yl)ethyl)piperidin-1-yl)-2-(2,6-dioxopiperidin-3-yl)isoindoline-1,3-dione] came in with an IC50 in assay [1] (Table 4) of 10.2 nM. In addition, the inhibition at 0.01 µM in assay [2] (p300, 10 nM, Table 4) was 50 to 80%.
`CC(=O)N1CCc2c(c(N3CCCc4cc(-c5cnn(C)c5)c(C(F)F)cc43)nn2C2CCN(C(=O)CCCN3CCC(CNc4cccc5c4n(C)c(=O)n5C4CCC(=O)NC4=O)CC3)CC2)C1` (stereo not shown) [P-214, 3-(4-(((1-(4-(4-(5-Acetyl-3-(7-(difluoromethyl)-6-(1-methyl-1H-pyrazol-4-yl)-3,4-dihydroquinolin-1(2H)-yl)-4,5,6,7-tetrahydro-1H-pyrazolo[4,3-c]pyridin-1-yl)piperidin-1-yl)-4-oxobutyl)piperidin-4-yl)methyl)amino)-3-methyl-2-oxo-2,3-dihydro-1H-benzo[d]imidazol-1-yl)piperidine-2,6-dione] yielded an IC50 in assay [1] (Table 4) of 51.2 nM. Also, the inhibition at 0.01 µM in assay [2] (p300, 10 nM, Table 4) was 20 to 50%.
In assay [1] (Table 4), `CC(=O)N1CCc2c(c(N3CCCc4cc(-c5cnn(C)c5)c(C(F)F)cc43)nn2C2CCN(C(=O)CCCN3CCN(Cc4ccc5c(c4)n(C)c(=O)n5C4CCC(=O)NC4=O)CC3)CC2)C1` (stereo not shown) [P-215, 3-(5-((4-(4-(4-(5-Acetyl-3-(7-(difluoromethyl)-6-(1-methyl-1H-pyrazol-4-yl)-3,4-dihydroquinolin-1(2H)-yl)-4,5,6,7-tetrahydro-1H-pyrazolo[4,3-c]pyridin-1-yl)piperidin-1-yl)-4-oxobutyl)piperazin-1-yl)methyl)-3-methyl-2-oxo-2,3-dihydro-1H-benzo[d]imidazol-1-yl)piperidine-2,6-dione] showed an IC50 of 33.1 nM. Moreover, in assay [2] (p300, 10 nM, Table 4), the inhibition at 0.01 µM was 20 to 50%.
`CC(=O)N1CCc2c(c(N3CCCc4cc(-c5cnn(C)c5)c(C(F)F)cc43)nn2C2CCN(C(=O)CCN3CCC(Cn4c(=O)n(C5CCC(=O)NC5=O)c5ccccc54)CC3)CC2)C1` (stereo not shown) [P-205, 3-(3-((1-(3-(4-(5-acetyl-3-(7-(difluoromethyl)-6-(1-methyl-1H-pyrazol-4-yl)-3,4-dihydroquinolin-1(2H)-yl)-4,5,6,7-tetrahydro-1H-pyrazolo[4,3-c]pyridin-1-yl)piperidin-1-yl)-3-oxopropyl)piperidin-4-yl)methyl)-2-oxo-2,3-dihydro-1H-benzo[d]imidazol-1-yl)piperidine-2,6-dione] showed an IC50 in assay [1] (Table 4) of 158 nM. The inhibition at 0.01 µM in assay [2] (p300, 10 nM, Table 4) is under 20%.
